Test results as given in US9732094B2, “Arylquinazolines” (Merck Patent GmbH, priority 2013, dated 2017).
Where two headings read alike, the source gives them in different places.

Assays:
Kv11.1 (hERG) = Kv11.1 (hERG) (Homo sapiens (Human), UniProt Q12809); assay: Kv11.1 (hERG) ion channel activity (patch clamp assay), HEK293 cells transfected with hERG gene
DNA-PK = DNA-PK (Homo sapiens (Human), UniProt P78527); assay: DNA-PK assay (biochemical), flashplate 33P-ATP kinase assay
Summary of the method: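 Reactions ran in streptavidin-coated flashplates and were halted by 200 mM EDTA, with a further 30 min at room temperature before saline washing.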

[1] = molecular target: DNA-PK phosphorylation at serine 2056 (Homo sapiens (Human), UniProt P78527); assay: DNA-PK phosphorylation at serine 2056 (cellular), bleomycin-treated HCT116 cells, ELISA; type: cell-based; details: HCT116 cells, read-out: IC50 pDNA-PK
Summary of the method: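 HCT116 cells were treated with 10 μM bleomycin plus test compounds for six hours at 37 °C. Phospho-Ser2056 DNA-PK measured by chemiluminescent ELISA, normalised to total DNA-PKcs signal; DMSO control as blank.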

[2] = read-out: Ki [Kv1.11 hERG], Table 5

Kv11.1 (hERG), sequence (Q12809 whole entry): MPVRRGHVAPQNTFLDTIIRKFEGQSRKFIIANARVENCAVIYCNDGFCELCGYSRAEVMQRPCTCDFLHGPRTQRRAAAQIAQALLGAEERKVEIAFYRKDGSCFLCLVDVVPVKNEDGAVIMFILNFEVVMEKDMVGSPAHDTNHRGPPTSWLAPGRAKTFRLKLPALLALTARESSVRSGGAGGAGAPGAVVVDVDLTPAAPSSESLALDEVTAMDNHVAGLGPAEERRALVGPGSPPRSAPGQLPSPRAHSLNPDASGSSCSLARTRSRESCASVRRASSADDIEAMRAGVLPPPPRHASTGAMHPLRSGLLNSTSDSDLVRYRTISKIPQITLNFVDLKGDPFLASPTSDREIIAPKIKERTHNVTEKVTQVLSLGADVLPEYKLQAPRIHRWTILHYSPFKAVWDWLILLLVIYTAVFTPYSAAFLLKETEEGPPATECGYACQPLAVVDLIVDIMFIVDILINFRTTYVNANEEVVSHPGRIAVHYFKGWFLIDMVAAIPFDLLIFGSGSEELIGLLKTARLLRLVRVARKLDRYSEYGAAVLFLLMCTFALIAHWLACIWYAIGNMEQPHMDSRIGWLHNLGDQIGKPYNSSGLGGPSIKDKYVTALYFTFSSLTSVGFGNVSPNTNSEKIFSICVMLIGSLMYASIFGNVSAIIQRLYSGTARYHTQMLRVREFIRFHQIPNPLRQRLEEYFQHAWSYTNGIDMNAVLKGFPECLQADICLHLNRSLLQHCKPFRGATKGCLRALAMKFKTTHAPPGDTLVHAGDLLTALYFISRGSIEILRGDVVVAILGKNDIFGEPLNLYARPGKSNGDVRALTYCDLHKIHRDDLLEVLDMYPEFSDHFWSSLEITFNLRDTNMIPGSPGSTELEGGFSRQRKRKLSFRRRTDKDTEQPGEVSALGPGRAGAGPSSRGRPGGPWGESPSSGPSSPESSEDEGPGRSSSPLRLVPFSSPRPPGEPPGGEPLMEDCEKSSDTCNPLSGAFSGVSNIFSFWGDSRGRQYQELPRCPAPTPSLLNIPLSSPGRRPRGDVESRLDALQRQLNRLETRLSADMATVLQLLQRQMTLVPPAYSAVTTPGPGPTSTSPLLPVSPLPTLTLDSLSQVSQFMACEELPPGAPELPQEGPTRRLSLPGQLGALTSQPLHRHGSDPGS

Row | SMILES | Ki (Kv11.1 (hERG); Ki [Kv1.11 hERG], Table 5) [µM] | IC50 (DNA-PK; Table 5) [µM] | IC50 ([1]; Table 5) [µM] | Ki (Kv11.1 (hERG); [2]) [µM] | Ki (Kv11.1 (hERG); Ki [Kv1.11 hERG], patch clamp, HEK293 transfected with hERG gene) [µM] | IC50 (DNA-PK; enzymatic, 5 μM ATP) [µM] | IC50 ([1]; cellular, 10 μM bleomycin, six hours) [µM]
1 | CC(O)(c1ccc(F)c(-c2ncnc3cc(N4CCOCC4)ccc23)c1)c1nccs1 (stereo not drawn) [Example 163, 1-[4-Fluoro-3-(7-morpholin-4-yl-quinazolin-4-yl)-phenyl]-1-thiazol-2-ylethanol] | 10 to 15 | 0.007 to 0.03 | 10 to 30 |  |  |  | 
2 | OC(c1cc(F)c(F)c(-c2ncnc3cc(N4CCOCC4)ccc23)c1)c1nccs1 (stereo not drawn) [Example 171, [3,4-Difluoro-5-(7-morpholin-4-yl-quinazolin-4-yl)-phenyl]thiazol-2-yl-methanol] |  | < 0.003 | 0.5 to 5 | < 10 |  |  | 
3 | OC(c1cccc(-c2ncnc3cc(N4CCOCC4)ccc23)c1)(c1nccs1)C(F)(F)F (stereo not drawn) [Example 173, 2,2,2-Trifluoro-1-[3-(7-morpholin-4-yl-quinazolin-4-yl)-phenyl)-1-thiazol-2-ylethanol] |  | < 0.003 | 5 to 10 | < 10 |  |  | 
4 | COC(c1ccc(F)c(-c2ncnc3cc(N4CCOCC4)ccc23)c1)c1nccs1 (stereo not drawn) [Example 177, 4-[2-Fluoro-5-(-methoxythiazol-2-ylmethyl)phenyl]-7-morpholin-4-yl-quinazoline] |  | 0.003 to 0.007 | 10 to 30 | > 25 |  |  | 
5 | OC(c1cc(F)c(F)c(-c2ncnc3cc(N4CCOCC4)ccc23)c1)c1nccs1 (stereo not drawn) [Example 178, [3,4-Difluoro-5-(7-morpholin-4-yl-quinazolin-4-yl)-phenyl)thiazol-2-yl-methanol] |  | < 0.003 | 0.5 to 5 | > 25 |  |  | 
6 | OC(c1cc(F)c(F)c(-c2ncnc3cc(N4CCOCC4)ccc23)c1)c1nccs1 (stereo not drawn) [Example 179, [3,4-Difluoro-5-(7-morpholin-4-yl-quinazolin-4-yl)-phenyl]thiazol-2-yl-methanol] |  | 0.003 to 0.007 | 0.5 to 5 | < 10 |  |  | 
7 | OC(c1cnc(F)c(-c2ncnc3cc(N4CCOCC4)ccc23)c1)c1nccs1 (stereo not drawn) [Example 180, [6-Fluoro-5-(7-morpholin-4-yl-quinazolin-4-yl)-pyridin-3-yl]thiazol-2-ylmethanol] |  | < 0.003 | 5 to 10 | < 10 |  |  | 
8 | Cc1csc(C(O)c2cc(-c3ncnc4cc(N5CCOCC5)ccc34)c(F)cc2Cl)n1 (stereo not drawn) [Example 181, [2-Chloro-4-fluoro-5-(7-morpholin-4-yl-quinazolin-4-yl)-phenyl]-(4-methyl-thiazol-2-yl)-methanol] |  | < 0.003 | 0.5 to 5 | < 10 |  |  | 
9 | OCc1csc([C@@H](O)c2cc(-c3ncnc4cc(N5CCOCC5)ccc34)c(F)cc2Cl)n1 [Example 185, (S)-[2-Chloro-4-fluoro-5-(7-morpholin-4-yl-quinazolin-4-yl)-phenyl]-(4-hydroxymethyl-thiazol-2-yl)-methanol] |  | < 0.003 | 0.5 to 5 | > 25 |  |  | 
10 | OCc1csc([C@H](O)c2cc(-c3ncnc4cc(N5CCOCC5)ccc34)c(F)cc2Cl)n1 [Example 186, (R)-[2-Chloro-4-fluoro-5-(7-morpholin-4-yl-quinazolin-4-yl)-phenyl]-(4-hydroxymethyl-thiazol-2-yl)-methanol] |  | 0.007 to 0.03 | 5 to 10 | < 10 |  |  | 
11 | OC(c1cnc(F)c(-c2ncnc3cc(N4CCOCC4)ccc23)c1)c1nccs1 (stereo not drawn) [Example 188, [6-Fluoro-5-(7-morpholin-4-yl-quinazolin-4-yl)-pyridin-3-yl]thiazol-2-ylmethanol] |  | < 0.003 | 5 to 10 | > 25 |  |  | 
12 | OC(c1cnc(F)c(-c2ncnc3cc(N4CCOCC4)ccc23)c1)c1nccs1 (stereo not drawn) [Example 189, [6-Fluoro-5-(7-morpholin-4-yl-quinazolin-4-yl)-pyridin-3-yl]thiazol-2-ylmethanol] | 15 to 25 | 0.003 to 0.007 | 0.5 to 5 |  |  |  | 
13 | Cn1cc(C(O)c2ccc(F)c(-c3ncnc4cc(N5CCOCC5)ccc34)c2)cn1 (stereo not drawn) [Example 191, [4-Fluoro-3-(7-morpholin-4-yl-quinazolin-4-yl)-phenyl]-(1-methyl-1H-pyrazol-4-yl)-methanol] |  | < 0.003 | 10 to 30 | > 25 |  |  | 
14 | Cc1nc(C(O)c2cnc(F)c(-c3ncnc4cc(N5CCOCC5)ncc34)c2)sc1C (stereo not drawn) [Example 196, (4,5-Dimethyl-thiazol-2-yl)-[6-fluoro-5-(7-morpholin-4-yl-pyrido[4,3-d)-pyrimidin-4-yl)-pyridin-3-yl]-methanol] |  | 0.007 to 0.03 | 10 to 30 | > 25 |  |  | 
15 | CC(C)n1cc(C(O)c2ccc(F)c(-c3ncnc4cc(N5CCOCC5)ccc34)c2)cn1 (stereo not drawn) [Example 197, [4-Fluoro-3-(7-morpholin-4-yl-quinazolin-4-yl)-phenyl]-(1-isopropyl-1H-pyrazol-4-yl)-methanol] |  | 0.003 to 0.007 | 5 to 10 | < 10 |  |  | 
16 | Fc1ccc(C(OC(F)F)c2nccs2)cc1-c1ncnc2cc(N3CCOCC3)ccc12 (stereo not drawn) [Example 199, 4-[5-(Difluoro-methoxy-thiazol-2-ylmethyl)-2-fluoro-phenyl]-7-morpholin-4-yl-quinazoline] |  | 0.003 to 0.007 | 10 to 30 | < 10 |  |  | 
17 | Cc1nc(C(O)c2ccc(F)c(-c3ncnc4cc(N5CCOCC5)ccc34)c2)sc1CO (stereo not drawn) [Example 200, [4-Fluoro-3-(7-morpholin-4-yl-quinazolin-4-yl)-phenyl]-(5-hydroxy-methyl-4-methyl-thiazol-2-yl)-methanol] |  | 0.003 to 0.007 | 5 to 10 | > 25 |  |  | 
18 | CC(O)c1csc(C(O)c2cc(-c3ncnc4cc(N5CCOCC5)ccc34)c(F)cc2Cl)n1 (stereo not drawn) [Example 201, 1-(2-{[2-Chloro-4-fluoro-5-(7-morpholin-4-yl-quinazolin-4-yl)-phenyl]hydroxy-methyl}thiazol-4-yl)-ethanol] | 15 to 25 | 0.003 to 0.007 | 0.5 to 5 |  |  |  | 
19 | CCn1cc(C(O)c2cc(-c3ncnc4cc(N5CCOCC5)ccc34)c(F)cc2Cl)cn1 (stereo not drawn) [Example 202, [2-Chloro-4-fluoro-5-(7-morpholin-4-ylquinazolin-4-yl)-phenyl]-(1-ethyl-1H-pyrazol-4-yl)-methanol] | 15 to 25 | 0.007 to 0.03 | 0.5 to 5 |  |  |  | 
20 | Cc1nc(C(O)c2cnc(F)c(-c3ncnc4cc(N5CCOCC5)ncc34)c2)sc1C (stereo not drawn) [Example 203, (4,5-Dimethyl-thiazol-2-yl)-[6-fluoro-5-(7-morpholin-4-yl-pyrido[4,3-d}-pyrimidin-4-yl)-pyridin-3-yl]-methanol] |  | > 0.03 | 10 to 30 | > 25 |  |  | 
21 | Cc1nc([C@H](O)c2cnc(F)c(-c3ncnc4cc(N5CCOCC5)ncc34)c2)sc1C [Example 204, (R)-(4,5-Dimethyl-thiazol-2-yl)-[6-fluoro-5-(7-morpholin-4-yl-pyrido[4,3-d}-pyrimidin-4-yl)-pyridin-3-yl]-methanol] | 10 to 15 | > 0.03 | 10 to 30 |  |  |  | 
22 | Cc1nc(C(O)c2cc(-c3ncnc4cc(N5CCOCC5)ccc34)cnc2F)sc1C (stereo not drawn) [Example 205, (4,5-Dimethyl-thiazol-2-yl)-[2-fluoro-5-(7-morpholin-4-yl-quinazolin-4-yl)-pyridin-3-yl]-methanol] | 10 to 15 | 0.007 to 0.03 | 10 to 30 |  |  |  | 
23 | Cc1cc(F)c(-c2ncnc3cc(N4CCOCC4)ccc23)cc1C(O)c1nccs1 (stereo not drawn) [Example 207, [4-Fluoro-2-methyl-5-(7-morpholinylquinazolin-4-yl)phenyl]thiazol-2-ylmethanol] |  |  |  |  | 15 to 25 | < 0.003 | 0.5 to 5
